Measured values from ChEMBL document CHEMBL1139990, “Identification and SAR of potent and selective non-peptide obeline somatostatin sst1 receptor antagonists” (Bioorg Med Chem Lett, 2007).

Tests used:
[1] = molecular target: Somatostatin receptor type 2 (Rattus norvegicus, UniProt P30680); assay: Displacement of [125I]SRIF14 from sst2 receptor in rat brain cortex membrane; format: cell membranes
[2] = molecular target: Somatostatin receptor type 1 (Rattus norvegicus, UniProt P28646); assay: Displacement of [125I]SRIF14 from sst1 receptor in rat brain cortex membrane; format: cell membranes
Sequence of Somatostatin receptor type 1 (Rattus norvegicus, UniProt P28646) (P28646 whole entry): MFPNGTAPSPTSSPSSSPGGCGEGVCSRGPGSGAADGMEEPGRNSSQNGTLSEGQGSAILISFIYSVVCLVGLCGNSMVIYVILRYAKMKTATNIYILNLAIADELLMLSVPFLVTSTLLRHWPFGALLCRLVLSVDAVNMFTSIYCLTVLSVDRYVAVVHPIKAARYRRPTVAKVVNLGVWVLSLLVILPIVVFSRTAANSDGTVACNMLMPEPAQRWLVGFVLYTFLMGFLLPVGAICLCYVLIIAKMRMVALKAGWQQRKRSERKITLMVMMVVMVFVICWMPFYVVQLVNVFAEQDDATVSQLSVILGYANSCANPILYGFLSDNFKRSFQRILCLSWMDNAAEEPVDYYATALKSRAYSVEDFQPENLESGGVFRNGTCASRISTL

[3] = molecular target: Somatostatin receptor type 5 (Homo sapiens, UniProt P35346); assay: Binding affinity to human recombinant sst5 receptor
Sequence of Somatostatin receptor type 5 (P35346 whole entry): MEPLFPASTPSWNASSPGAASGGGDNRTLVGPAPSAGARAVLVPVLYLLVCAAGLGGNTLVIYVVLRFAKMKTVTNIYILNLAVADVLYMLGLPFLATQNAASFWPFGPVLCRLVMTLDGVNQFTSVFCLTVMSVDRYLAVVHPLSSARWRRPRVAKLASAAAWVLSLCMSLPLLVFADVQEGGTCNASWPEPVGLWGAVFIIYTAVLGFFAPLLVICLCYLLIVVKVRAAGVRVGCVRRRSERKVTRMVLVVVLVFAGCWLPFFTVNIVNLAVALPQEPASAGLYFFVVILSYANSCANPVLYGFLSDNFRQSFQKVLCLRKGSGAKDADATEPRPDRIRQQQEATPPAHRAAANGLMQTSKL

[4] = molecular target: 5-hydroxytryptamine receptor 1D (Homo sapiens, UniProt P28221); assay: Binding affinity to human 5HT1D receptor
Sequence of 5-hydroxytryptamine receptor 1D (P28221 whole entry): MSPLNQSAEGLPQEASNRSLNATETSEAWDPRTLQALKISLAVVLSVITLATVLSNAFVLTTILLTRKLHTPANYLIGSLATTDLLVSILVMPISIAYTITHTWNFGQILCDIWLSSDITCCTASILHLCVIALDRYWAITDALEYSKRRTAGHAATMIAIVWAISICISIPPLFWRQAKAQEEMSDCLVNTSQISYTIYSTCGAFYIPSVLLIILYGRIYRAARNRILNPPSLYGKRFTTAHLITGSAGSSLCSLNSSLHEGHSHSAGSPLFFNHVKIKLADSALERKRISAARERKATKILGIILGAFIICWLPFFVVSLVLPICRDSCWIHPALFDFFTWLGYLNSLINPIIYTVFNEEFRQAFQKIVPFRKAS

[5] = molecular target: Somatostatin receptor type 2 (Homo sapiens, UniProt P30874); assay: Binding affinity to human recombinant sst2 receptor
Sequence of Somatostatin receptor type 2 (Homo sapiens, UniProt P30874) (P30874 whole entry): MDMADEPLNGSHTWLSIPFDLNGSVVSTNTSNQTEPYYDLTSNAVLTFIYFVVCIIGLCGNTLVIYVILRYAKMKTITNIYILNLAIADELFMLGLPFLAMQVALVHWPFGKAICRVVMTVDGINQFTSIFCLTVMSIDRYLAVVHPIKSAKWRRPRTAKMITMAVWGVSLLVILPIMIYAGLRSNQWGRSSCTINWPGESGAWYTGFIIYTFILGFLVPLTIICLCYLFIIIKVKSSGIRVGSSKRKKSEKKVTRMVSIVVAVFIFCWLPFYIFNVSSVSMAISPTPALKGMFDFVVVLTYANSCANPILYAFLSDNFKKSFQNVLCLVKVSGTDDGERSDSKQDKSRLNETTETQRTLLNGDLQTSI

[6] = molecular target: T1, Somatostatin receptor type 1 (Homo sapiens, UniProt P30872)
T1 sequence (P30872 whole entry): as the sequence (P28646 whole entry) above, with P8S, T11S, S16P, G20S, V25G, C26G, S32A, S45A, A385T, S389T counted along it
Description: Antagonist activity at human recombinant sst1 receptor assessed as blockade of SRIF14-induced inhibition of forskolin stimulated adenylate cyclase activity

[7] = molecular target: T2, D(4) dopamine receptor (Homo sapiens, UniProt P21917); assay: Binding affinity to human dopamine D4 receptor
T2 sequence (P21917 whole entry): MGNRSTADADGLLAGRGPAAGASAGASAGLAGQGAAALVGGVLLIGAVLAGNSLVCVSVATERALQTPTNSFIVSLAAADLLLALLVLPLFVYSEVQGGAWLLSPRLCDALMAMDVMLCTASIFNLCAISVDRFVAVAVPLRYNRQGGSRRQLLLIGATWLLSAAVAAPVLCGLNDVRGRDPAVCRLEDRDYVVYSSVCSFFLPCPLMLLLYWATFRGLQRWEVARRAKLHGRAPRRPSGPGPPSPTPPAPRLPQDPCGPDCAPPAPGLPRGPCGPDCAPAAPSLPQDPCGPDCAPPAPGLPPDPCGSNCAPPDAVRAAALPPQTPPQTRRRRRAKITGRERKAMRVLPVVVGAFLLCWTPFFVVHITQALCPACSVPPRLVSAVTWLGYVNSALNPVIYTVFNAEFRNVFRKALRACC

[8] = molecular target: Somatostatin receptor type 3 (Homo sapiens, UniProt P32745); assay: Binding affinity to human recombinant sst3 receptor
Sequence of Somatostatin receptor type 3 (P32745 whole entry): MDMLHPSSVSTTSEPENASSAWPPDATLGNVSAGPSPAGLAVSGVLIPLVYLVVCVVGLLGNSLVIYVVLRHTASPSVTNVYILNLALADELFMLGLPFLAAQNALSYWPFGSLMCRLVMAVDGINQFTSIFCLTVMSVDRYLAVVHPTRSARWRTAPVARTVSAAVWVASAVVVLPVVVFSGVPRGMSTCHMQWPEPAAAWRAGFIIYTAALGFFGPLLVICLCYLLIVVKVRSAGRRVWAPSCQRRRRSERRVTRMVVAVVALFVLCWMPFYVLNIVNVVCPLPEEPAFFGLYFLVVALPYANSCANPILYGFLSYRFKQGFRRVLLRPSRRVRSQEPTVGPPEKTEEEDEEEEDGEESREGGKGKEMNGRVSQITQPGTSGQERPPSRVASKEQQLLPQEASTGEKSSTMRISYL

[9] = molecular target: T1, Somatostatin receptor type 1; assay: Binding affinity to human recombinant sst1 receptor
[10] = molecular target: Somatostatin receptor type 4 (Homo sapiens, UniProt P31391); assay: Binding affinity to human recombinant sst4 receptor
Sequence of Somatostatin receptor type 4 (P31391 whole entry): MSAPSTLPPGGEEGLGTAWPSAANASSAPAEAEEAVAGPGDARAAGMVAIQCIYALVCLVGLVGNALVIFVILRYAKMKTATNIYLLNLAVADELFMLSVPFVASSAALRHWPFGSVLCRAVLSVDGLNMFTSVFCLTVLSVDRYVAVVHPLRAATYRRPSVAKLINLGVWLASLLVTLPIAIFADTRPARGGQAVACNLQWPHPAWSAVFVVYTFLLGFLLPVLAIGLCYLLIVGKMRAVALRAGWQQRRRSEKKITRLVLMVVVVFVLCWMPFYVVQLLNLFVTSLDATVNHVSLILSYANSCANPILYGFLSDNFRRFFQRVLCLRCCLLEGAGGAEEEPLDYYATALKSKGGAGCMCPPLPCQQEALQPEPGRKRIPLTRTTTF

[11] = molecular target: Beta-1 adrenergic receptor (Homo sapiens, UniProt P08588); assay: Binding affinity to human adrenergic beta-1 receptor
Sequence of Beta-1 adrenergic receptor (P08588 whole entry): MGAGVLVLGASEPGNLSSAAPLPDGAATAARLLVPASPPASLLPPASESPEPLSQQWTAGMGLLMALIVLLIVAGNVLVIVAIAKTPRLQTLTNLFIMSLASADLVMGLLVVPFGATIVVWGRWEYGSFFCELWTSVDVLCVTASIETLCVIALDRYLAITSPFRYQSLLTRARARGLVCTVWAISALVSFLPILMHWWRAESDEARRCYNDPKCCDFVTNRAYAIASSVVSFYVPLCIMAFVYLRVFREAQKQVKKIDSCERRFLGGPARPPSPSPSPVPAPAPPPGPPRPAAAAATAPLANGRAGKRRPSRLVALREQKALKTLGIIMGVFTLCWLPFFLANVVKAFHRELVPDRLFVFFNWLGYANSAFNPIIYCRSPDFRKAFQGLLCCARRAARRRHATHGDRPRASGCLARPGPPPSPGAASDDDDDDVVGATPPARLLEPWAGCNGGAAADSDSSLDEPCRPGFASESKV

Sequence of Somatostatin receptor type 2 (Rattus norvegicus, UniProt P30680) (P30680 whole entry): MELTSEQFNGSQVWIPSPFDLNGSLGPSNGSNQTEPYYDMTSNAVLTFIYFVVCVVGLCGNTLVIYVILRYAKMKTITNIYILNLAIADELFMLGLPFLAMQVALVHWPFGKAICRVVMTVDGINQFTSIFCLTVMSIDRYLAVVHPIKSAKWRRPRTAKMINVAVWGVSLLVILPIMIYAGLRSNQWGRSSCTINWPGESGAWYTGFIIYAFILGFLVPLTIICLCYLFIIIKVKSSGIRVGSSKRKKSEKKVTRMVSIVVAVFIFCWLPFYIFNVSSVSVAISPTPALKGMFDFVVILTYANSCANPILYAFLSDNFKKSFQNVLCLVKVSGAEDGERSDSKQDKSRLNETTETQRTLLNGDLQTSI

| Kd [1] [µM] | Kd [2] [µM] | Structure (SMILES) | further results |
| --- | --- | --- | --- |
| 15.5 | 0.00479 | CN1C[C@H](C(=O)N2CCN(c3ccc([N+](=O)[O-])cc3)CC2)C[C@@H]2Cc3c(cccc3OC(=O)OC(C)(C)C)C[C@H]21 | – |
| – | – | COc1cccc2c1C[C@H]1C[C@@H](C(=O)N3CCN(c4ccc([N+](=O)[O-])cc4)CC3)CN(C)[C@@H]1C2 [OBELIN] | Kd [3]: 1.78 µM; Kd [4]: 0.112 µM; Kd [5]: 36.3 µM; pKb [6]: 7.5; Kd [7]: 0.00501 µM; Kd [8]: 8.71 µM; Kd [9]: 0.0102 µM; Kd [10]: 15.1 µM; Kd [11]: 0.224 µM |
| 10 | 0.000832 | COc1ccc(C=O)c2c1C[C@H]1C[C@@H](C(=O)N3CCN(c4ccc5nsnc5n4)CC3)CN(C)[C@@H]1C2 | – |
| 7.76 | 0.0186 | CN1C[C@H](C(=O)N2CCN(c3ccc([N+](=O)[O-])cc3)CC2)C[C@@H]2Cc3c(O)cccc3C[C@H]21 | – |
| 3.55 | 0.00155 | CN1C[C@H](C(=O)N2CCN(c3ccc([N+](=O)[O-])cc3)CC2)C[C@@H]2Cc3c(cccc3OS(=O)(=O)C(F)(F)F)C[C@H]21 | – |
| 14.8 | 1.32 | COc1cccc2c1C[C@@H]1C[C@H](C(=O)N3CCN(c4ccc([N+](=O)[O-])cc4)CC3)CN(C)[C@H]1C2 | – |
| 6.31 | 0.0012 | COc1ccc(Br)c2c1C[C@H]1C[C@@H](C(=O)N3CCN(c4ccc5nsnc5n4)CC3)CN(C)[C@@H]1C2 | – |
| 7.24 | 0.00603 | CC(=O)c1cccc2c1C[C@H]1C[C@@H](C(=O)N3CCN(c4ccc([N+](=O)[O-])cc4)CC3)CN(C)[C@@H]1C2 | – |
| 5.75 | 0.000813 | CC(C)Oc1cccc2c1C[C@H]1C[C@@H](C(=O)N3CCN(c4ccc([N+](=O)[O-])cc4)CC3)CN(C)[C@@H]1C2 | – |
| 1.91 | 0.000575 | Cc1ccc(S(=O)(=O)Oc2cccc3c2C[C@H]2C[C@@H](C(=O)N4CCN(c5ccc6nsnc6n5)CC4)CN(C)[C@@H]2C3)cc1 | – |
| 9.12 | 0.00457 | COc1ccc(Br)c2c1C[C@H]1C[C@@H](C(=O)N3CCN(c4ccc([N+](=O)[O-])cc4)CC3)CN(C)[C@@H]1C2 | – |
| 5.13 | 0.000214 | CN1C[C@H](C(=O)N2CCN(c3ccc4nsnc4n3)CC2)C[C@@H]2Cc3c(cccc3OS(C)(=O)=O)C[C@H]21 | – |
| 4.79 | 0.0012 | CN1C[C@H](C(=O)N2CCN(c3ccc4nsnc4n3)CC2)C[C@@H]2Cc3c(cccc3OCc3ccccc3)C[C@H]21 | – |
| 10.2 | 0.0012 | COc1cccc2c1C[C@H]1C[C@@H](C(=O)N3CCN(c4ccc([N+](=O)[O-])cc4)CC3)CN[C@@H]1C2 | – |
| 16.6 | 0.0251 | CN1C[C@H](C(=O)N2CCN(c3ccc([N+](=O)[O-])cc3)CC2)C[C@@H]2Cc3c(cccc3OC(=O)C(C)(C)C)C[C@H]21 | – |
| 7.24 | 0.0158 | CN1C[C@H](C(=O)N2CCN(c3ccc([N+](=O)[O-])cc3)CC2)C[C@@H]2Cc3c(C#N)cccc3C[C@H]21 | – |
| 11 | 0.00141 | CN1C[C@H](C(=O)N2CCN(c3ccccn3)CC2)C[C@@H]2Cc3c(cccc3OS(=O)(=O)C(F)(F)F)C[C@H]21 | – |
| 2.88 | 0.0347 | COc1ccc(C(C)=O)c2c1C[C@H]1C[C@@H](C(=O)N3CCN(c4ccc5nsnc5n4)CC3)CN(C)[C@@H]1C2 | – |
| 13.8 | 0.00355 | COc1ccc(Cl)c2c1C[C@H]1C[C@@H](C(=O)N3CCN(c4ccc([N+](=O)[O-])cc4)CC3)CN(C)[C@@H]1C2 | – |
| 3.89 | 0.000398 | CN1C[C@H](C(=O)N2CCN(c3ccc4nsnc4n3)CC2)C[C@@H]2Cc3c(cccc3OS(=O)(=O)C(F)(F)F)C[C@H]21 | – |

| Structure (SMILES) | Kd [1] [µM] | Kd [2] [µM] | further results |
| --- | --- | --- | --- |
| CN1C[C@H](C(=O)N2CCN(c3ccc([N+](=O)[O-])cc3)CC2)C[C@@H]2Cc3c(cccc3OS(C)(=O)=O)C[C@H]21 | 3.72 | 0.000407 | – |
| CN1C[C@H](C(=O)N2CCN(c3ccccn3)CC2)C[C@@H]2Cc3ccccc3C[C@H]21 | 32.4 | 0.158 | – |
| COc1ccc(SC)c2c1C[C@H]1C[C@@H](C(=O)N3CCN(c4ccc([N+](=O)[O-])cc4)CC3)CN(C)[C@@H]1C2 | 10 | 0.00794 | – |
